Literature values, collected in patent US20080248135A1, “Combination Therapy for Otitis with Antiseptic and pH Adjustment” (Collegium Pharmaceutical, Inc., priority 2006, published 2008).

Assays:
P. aeruginosa = details: background statement
Aspergillus = details: antifungal creams; background statement

Row | Compound | Activity against P. aeruginosa (P. aeruginosa) | other results
1 | CC1(C)S[C@@H]2[C@H](NC(=O)[C@H](N)c3ccccc3)C(=O)N2[C@H]1C(=O)O [ampicillin] | no activity | –
2 | N[C@@H](C(=O)N[C@@H]1C(=O)N2C(C(=O)O)=C(Cl)CS[C@H]12)c1ccccc1 [cefaclor] | no activity | –
3 | CC1=C(C(=O)O)N2C(=O)[C@@H](NC(=O)[C@H](N)c3ccccc3)[C@H]2SC1 [cephalexin] | no activity | –
4 | Clc1ccccc1C(c1ccccc1)(c1ccccc1)n1ccnc1 [clotrimazole] | – | Effectiveness against Aspergillus (Aspergillus): not effective
5 | II [iodine, elemental iodine (I2)] | – | Saturating concentration of iodine in water: ca. 0.0013 M
6 | C[C@@H]1[C@H](O)[C@@H](C)/C=C/C=C/CC/C=C/C=C/C=C/C=C/C(O[C@H]2O[C@H](C)[C@@H](O)[C@H](N)[C@@H]2O)CC2O[C@](O)(CC(O)C(O)CCC(O)CC(O)CC(O)CC(=O)O[C@H]1C)CC(O)C2C(=O)O (stereo partly shown) [nystatin] | – | Effectiveness against Aspergillus (Aspergillus): not effective
7 | trimethoprim-sulfamethoxazole | no activity | –
